According to patent publication US9388141B2, “Acylaminocycloalkyl compounds suitable for treating disorders that respond to modulation of dopamine D3 receptor” (AbbVie Deutschland GmbH & Co. KG, priority 2013, dated 2016):

Columns and labels:
[1] = Determination of the microsomal half-life / microsomal clearance; type: in vitro ADME; conditions: human liver microsomes, 0.5 μM test substance, 0.25 mg microsomal protein/ml, pH 7.4, 37° C.
Experimental: The metabolic stability of the compounds of the invention was determined in the following assay.
The test substances were incubated in a concentration of 0.5 μM as follows:
0.5 μM test substance are preincubated together with liver microsomes from different species (from rat, human or other species) (0.25 mg of microsomal protein/ml) in 0.05 M potassium phosphate buffer of pH 7.4 in microtiter plates at 37° C. for 5 min. The reaction is started by adding NADPH (1 mg/mL). After 0, 5, 10, 15, 20 and 30 min, 50 μl aliquots are removed, and the reaction is immediately stopped and cooled with the same volume of acetonitrile. The samples are frozen until analyzed. The remaining concentration of undegraded test substance is determined by MSMS. The half-life (T1/2) is determined from the gradient of the signal of test substance/unit time plot, it being possible to calculate the half-life of the test substance, assuming first order kinetics, from the decrease in the concentration of the compound with time. The microsomal clearance (mCl) is calculated from mCl=1n2/T1/2/(content of microsomal protein in mg/ml)×1000 [[…]] (modified from references: Di, The Society for Biomoleculur Screening, 2003, 453-462; Obach, DMD, 1999 vol 27. N 11, 1350-1359).

[2] = molecular target: T1, hERG cardiac K+ channel (Homo sapiens, UniProt Q12809); test: Blocking the hERG channel, [3H]dofetilide displacement; type: binding; conditions: membrane homogenate of HEK 293 cells with hERG K+ channels
T1 construct: expressed in transfected cells; host or cells: HEK-293
Experimental: The binding affinity of test drugs for the hERG cardiac K^+ channel was determined by their ability to displace tritiated dofetilide (a class III antiarrhythmic drug and potent hERG blocker) in membrane homogenates from HEK-293 cells heterogeneously expressing the hERG channel. The assay was performed as previously described G. J. Diaz et al., Journal of Pharmacological and Toxicological Methods, 50 (2004), 187-199). For this, drug dilutions were prepared from 10 mM DMSO stocks and the following were added to a 96-well polystyrene plate (Perkin-Elmer Optiplate): 20 μl of assay binding buffer (for total bounds), or […] astemizole (for non-specific bounds), or test drug, 50 μl of [^3H]dofetilide (20 nM, ˜80 Ci/mmol specific activity), and 130 μl of membrane homogenate from HEK 293 cells stably transfected with hERG K^+ channels (final protein concentration of 30 μg per well). The plates were incubated at ambient temperature for […], aspirated onto GF/B filter plates (Perkin-Elmer), and washed with 2 ml of cold wash buffer. After allowing the plates to dry, 50 μl of scintillant (Perkin-Elmer MicroScint 20) were added to each well and the radioactivity was counted in a Perkin-Elmer Topcount NXT scintillation counter. […]

[3] = molecular target: T2, human dopamine D3 receptors (Homo sapiens, UniProt P35462); test: Dopamine D3 receptor binding, [125I]-iodosulpride displacement; conditions: membranes of HEK-293 cells with human D3 receptors, 0.1 nM [125I]-iodosulpride
T2 construct: expressed in transfected cells; host or cells: HEK-293
Experimental: (§1) The substance to be tested was either dissolved in methanol/Chremophor® (BASF SE) or in dimethyl sulfoxide and then diluted with water to the desired concentration.
(§2) Each assay mixture was run in triplicate. • The incubation buffer contained 50 mM tris, 120 mM NaCl, 5 mM KCl, 2 mM CaCl2, 2 mM MgCl2 and 0.1% bovine serum albumin, 10 μM quinolone and 0.1% ascorbic acid (prepared fresh daily). […] Each assay mixture was run in triplicate. • The incubation buffer contained 50 mM tris, 120 mM NaCl, 5 mM KCl, 2 mM CaCl2, 2 mM MgCl2 and 0.1% bovine serum albumin. The buffer was adjusted to pH 7.4 with HCl. c) Measurement and Analysis: • After having been incubated at 25° C. for 60 minutes, the assay mixtures were filtered through a Whatman GF/B glass fiber filter under vacuum using a cell collecting device. The filters were transferred to scintillation viols using a filter transfer system. After 4 ml of Ultima Gold® (Packard) have been added, the samples were shaken for one hour and the radioactivity was then counted in a Beta-Counter (Packard, Tricarb 2000 or 2200CA).

[4] = molecular target: T3, human dopamine D2L receptors (long isoform) (Homo sapiens, UniProt P14416); test: Dopamine D2L receptor binding, [125I]-iodospiperone displacement; conditions: selectivity ratio Ki (D2L)/Ki (D3)
T3 construct: expressed in transfected cells; host or cells: HEK-293
Experimental: as §1, §2

T3 sequence (P14416 whole entry, canonical isoform): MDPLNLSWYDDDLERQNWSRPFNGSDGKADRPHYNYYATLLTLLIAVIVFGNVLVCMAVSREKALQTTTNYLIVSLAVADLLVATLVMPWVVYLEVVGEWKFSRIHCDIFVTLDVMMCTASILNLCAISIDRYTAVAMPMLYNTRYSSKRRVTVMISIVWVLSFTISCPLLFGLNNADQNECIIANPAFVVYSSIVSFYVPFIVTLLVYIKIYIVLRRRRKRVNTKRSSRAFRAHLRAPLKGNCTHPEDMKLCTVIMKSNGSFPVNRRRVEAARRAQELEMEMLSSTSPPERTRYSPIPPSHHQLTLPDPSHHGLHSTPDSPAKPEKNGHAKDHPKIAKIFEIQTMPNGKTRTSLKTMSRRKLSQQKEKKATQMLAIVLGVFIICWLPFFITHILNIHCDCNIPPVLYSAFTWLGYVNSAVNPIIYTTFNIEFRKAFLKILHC
T2 sequence (P35462 whole entry): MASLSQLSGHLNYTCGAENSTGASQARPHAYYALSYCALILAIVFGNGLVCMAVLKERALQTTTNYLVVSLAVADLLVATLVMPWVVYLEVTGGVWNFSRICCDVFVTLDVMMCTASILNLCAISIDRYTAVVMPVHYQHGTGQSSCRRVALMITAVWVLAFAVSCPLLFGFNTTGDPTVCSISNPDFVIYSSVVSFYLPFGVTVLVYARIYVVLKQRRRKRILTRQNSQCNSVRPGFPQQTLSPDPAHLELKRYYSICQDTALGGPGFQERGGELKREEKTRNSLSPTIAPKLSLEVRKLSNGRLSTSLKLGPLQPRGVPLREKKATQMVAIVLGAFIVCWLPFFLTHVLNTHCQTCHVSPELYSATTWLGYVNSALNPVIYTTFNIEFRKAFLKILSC
T1 sequence (Q12809 whole entry): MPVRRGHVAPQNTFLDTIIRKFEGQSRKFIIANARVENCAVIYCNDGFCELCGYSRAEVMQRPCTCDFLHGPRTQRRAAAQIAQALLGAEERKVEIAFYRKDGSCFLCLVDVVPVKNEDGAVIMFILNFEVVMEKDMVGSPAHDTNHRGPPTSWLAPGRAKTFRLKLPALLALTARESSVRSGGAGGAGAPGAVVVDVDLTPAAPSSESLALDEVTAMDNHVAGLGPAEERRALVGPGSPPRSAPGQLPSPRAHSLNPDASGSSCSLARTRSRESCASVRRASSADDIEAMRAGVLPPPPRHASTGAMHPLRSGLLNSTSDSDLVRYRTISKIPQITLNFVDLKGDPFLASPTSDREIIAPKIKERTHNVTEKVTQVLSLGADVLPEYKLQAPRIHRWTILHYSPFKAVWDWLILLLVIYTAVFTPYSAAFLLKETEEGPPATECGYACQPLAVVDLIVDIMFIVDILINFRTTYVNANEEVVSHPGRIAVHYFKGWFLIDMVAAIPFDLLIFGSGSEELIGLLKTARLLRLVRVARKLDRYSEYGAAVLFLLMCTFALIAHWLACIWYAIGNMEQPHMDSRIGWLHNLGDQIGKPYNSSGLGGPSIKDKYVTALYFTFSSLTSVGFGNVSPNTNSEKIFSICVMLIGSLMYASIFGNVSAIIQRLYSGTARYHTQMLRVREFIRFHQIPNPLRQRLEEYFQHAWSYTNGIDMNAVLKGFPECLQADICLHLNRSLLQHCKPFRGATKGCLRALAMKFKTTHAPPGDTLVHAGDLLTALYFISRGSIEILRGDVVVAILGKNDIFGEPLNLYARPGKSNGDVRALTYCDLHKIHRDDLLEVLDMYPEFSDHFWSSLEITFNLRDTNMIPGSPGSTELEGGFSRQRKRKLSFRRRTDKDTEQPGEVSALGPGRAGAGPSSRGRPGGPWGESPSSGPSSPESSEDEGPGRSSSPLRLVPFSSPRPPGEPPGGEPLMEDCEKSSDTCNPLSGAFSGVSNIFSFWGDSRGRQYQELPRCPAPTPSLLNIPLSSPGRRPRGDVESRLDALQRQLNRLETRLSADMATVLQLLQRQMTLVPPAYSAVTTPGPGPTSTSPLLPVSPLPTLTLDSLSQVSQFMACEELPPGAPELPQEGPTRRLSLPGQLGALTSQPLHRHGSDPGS

Row | SMILES | Human mCl [1] | IC50 [2] [nM] | Ki [3] [nM] | D2/D3, Ki (D2L)/Ki (D3) [4]
1 | CC(C)(C)c1nc(C2CCC2)cc(N2CCN(CC[C@H]3CC[C@H](NC(=O)[C@H]4CC[C@H](O)CC4)CC3)CC2)n1 [Compound 1, trans-N-[trans-4-[2-[4-(2-tert-butyl-6-cyclobutyl-pyrimidin-4-yl)piperazin-1-yl]ethyl]cyclohexyl]-4-hydroxy-cyclohexanecarboxamide] | + (+: 20-120 μl min^−1 mg^−1) | > 10000 | < 10 | +++ (+++>50)
2 | CC(C)(C)c1nc(N2CCN(CC[C@H]3CC[C@@H](NC(=O)[C@H]4CC[C@H](O)CC4)CC3)CC2)cc(C2(C)CC2)n1 [Compound 28, Trans-N-[cis-4-[2-[4-[2-tert-butyl-6-(1-methylcyclopropyl)pyrimidin-4-yl]piperazin-1-yl]ethyl]cyclohexyl]-4-hydroxy-cyclohexanecarboxamide] | + (+: 20-120 μl min^−1 mg^−1) |  | < 10 | ++ (++>20)
3 | CC(C)(C)c1cc(N2CCN(CC[C@H]3CC[C@H](NC(=O)[C@H]4CC[C@H](O)CC4)CC3)CC2)nc(C(C)(C)C)n1 [Compound 20, trans-N-[trans-4-[2-[4-(2,6-ditert-butylpyrimidin-4-yl)piperazin-1-yl]ethyl]cyclohexyl]-4-hydroxy-cyclohexanecarboxamide] | + (+: 20-120 μl min^−1 mg^−1) |  | < 10 | ++ (++>20)
4 | COCCc1cc(N2CCN(CC[C@H]3CC[C@@H](NC(=O)[C@H]4CC[C@H](O)CC4)CC3)CC2)nc(C(C)(C)C)n1 [Compound 3, trans-N-[cis-4-[2-[4-[2-tert-butyl-6-(2-methoxyethyl)pyrimidin-4-yl]piperazin-1-yl]ethyl]cyclohexyl]-4-hydroxy-cyclohexanecarboxamide] | + (+: 20-120 μl min^−1 mg^−1) |  | < 10 | ++ (++>20)
5 | COCCc1cc(N2CCN(CC[C@H]3CC[C@@H](NC(=O)C4CC(O)(C(F)(F)F)C4)CC3)CC2)nc(C(C)(C)C)n1 (relative stereo) [Compound 26, N-[cis-4-[2-[4-[2-tert-butyl-6-(2-methoxyethyl)pyrimidin-4-yl]piperazin-1-yl]ethyl]cyclohexyl]-3-hydroxy-3-(trifluoromethyl)cyclobutanecarboxamide] | ++ (++: <20 μl min^−1 mg^−1) |  | < 50 | +++ (+++>50)
6 | CC(C)(C)c1nc(N2CCN(CC[C@H]3CC[C@@H](NC(=O)[C@H]4CC[C@H](O)CC4)CC3)CC2)cc(C(F)(F)F)n1 [Compound 23, Trans-N-[cis-4-[2-[4-[2-tert-butyl-6-(trifluoromethyl)pyrimidin-4-yl]piperazin-1-yl]ethyl]cyclohexyl]-4-hydroxy-cyclohexanecarboxamide] | + (+: 20-120 μl min^−1 mg^−1) |  | < 50 | +++ (+++>50)
7 | COCCc1cc(N2CCN(CC[C@H]3C[C@@H](NC(=O)[C@H]4CC[C@@H](O)CC4)C3)CC2)nc(C(C)(C)C)n1 [Compound 12, Cis-N-[cis-3-[2-[4-[2-tert-butyl-6-(2-methoxyethyl)pyrimidin-4-yl]piperazin-1-yl]ethyl]cyclobutyl]-4-hydroxy-cyclohexanecarboxamide] | + (+: 20-120 μl min^−1 mg^−1) |  | < 50 | +++ (+++>50)
8 | COCCc1cc(N2CCN(CC[C@H]3CC[C@@H](NC(=O)[C@H]4CC[C@@H](O)CC4)CC3)CC2)nc(C(C)(C)C)n1 [Compound 5, Cis-N-[cis-4-[2-[4-[2-tert-butyl-6-(2-methoxyethyl)pyrimidin-4-yl]piperazin-1-yl]ethyl]cyclohexyl]-4-hydroxy-cyclohexanecarboxamide] | ∘ (∘: >120 μl min^−1 mg^−1) |  | < 50 | ++ (++>20)
9 | CC(C)(C)c1nc(C2CCC2)cc(N2CCN(CC[C@H]3CC[C@H](NC(=O)[C@H]4CC[C@@H](O)CC4)CC3)CC2)n1.O=C(O)C(F)(F)F [Compound 14, Cis-N-[trans-4-[2-[4-(2-tert-butyl-6-cyclobutyl-pyrimidin-4-yl)piperazin-1-yl]ethyl]cyclohexyl]-4-hydroxy-cyclohexanecarboxamide; 2,2,2-trifluoroacetic acid] | ∘ (∘: >120 μl min^−1 mg^−1) |  | < 10 | ++ (++>20)
10 | COCCc1cc(N2CCN(CC[C@H]3C[C@H](NC(=O)C4CCC(O)CC4)C3)CC2)nc(C(C)(C)C)n1 (relative stereo) [Compound 11, N-[trans-3-[2-[4-[2-tert-butyl-6-(2-methoxyethyl)pyrimidin-4-yl]piperazin-1-yl]ethyl]cyclobutyl]-4-hydroxy-cyclohexanecarboxamide] | + (+: 20-120 μl min^−1 mg^−1) |  | < 10 | ++ (++>20)
